Experiments:
[1] = mice; cited from earlier work
[2] = In vitro release of NGF by dialysis in 5% BSA-PBS; assay type: physicochemical; details: 5% BSA-PBS (pH 7), 37° C., first hour (n=4)
Method: In vitro release study. The release of NGF from NGF NPs (n=4) was studied using a dialysis method. The release medium was PBS (pH 7) containing 5% BSA to mimic the physiological condition in blood. Briefly, 200 μl NGF NPs and […] release medium were loaded into the dialysis tube (invco 300 kDa). Then the dialysis tube was placed into a 30 ml release medium and shaken at a 37° C. at 135 rpm. At the time intervals (1, 2, 4, 6, 8, 24, 48 and 72 hours), 100 μl of the release medium were withdrawn and replaced with an equal volume of fresh medium. The amounts of released NGF in the medium were analyzed by a NGF Sandwich ELISA kit. As a control, free NGF (n=4) was studied in parallel.

[3] = rat, in vivo, iv; cited from earlier work
[4] = system: PC12 cells; experiment: Neurite outgrowth study; assay type: cell-based
Method: Neurite Outgrowth Study. It is important to maintain protein's activity after the formulation of the NPs. Thus, the inventors chose to measure the bioactivity of NGF HDL-mimicking NPs in PC12 cells for neurite outgrowth. They pre-coated a 6-well plate with rat tail collagen type I. They seeded PC12 cells at a density of 10000 cells/well to the pre-coated 6-well plate overnight to allow cells to attach on the plates. They diluted free NGF (10 μg/ml) and NGF HDL-mimicking NPs (10 μg/ml) with the culture medium to prepare various concentrations at 0.5, 1, 5, 10, 50, and 100 ng/ml using half-half dilution. Then, they added 100 μl of sample into each well of the plate and culture for 4 days. At day 4 they changed the medium to fresh medium containing the corresponding treatment and then continue the treatment for another 3 days. At day 7, they visualized cells by an inverted light microscope and take the imaging from each well at random spots under 10× magnification.

| Compound | maximal tolerate dose of single dose [1] [mg/kg] | NGF released [2] [%] | half-life [3] | neurite outgrowth ([4]; day 7, concentration of NGF lower than 10 ng/ml) | neurite outgrowth ([4]; day 7, treatment concentration higher than 10 ng/ml) |
| --- | --- | --- | --- | --- | --- |
| CC(=O)O[C@@]12CO[C@@H]1C[C@H](O)[C@@]1(C)C(=O)[C@H](O)C3=C(C)[C@@H](OC(=O)[C@H](O)[C@@H](NC(=O)OC(C)(C)C)c4ccccc4)C[C@@](O)([C@@H](OC(=O)c4ccccc4)[C@H]21)C3(C)C [DTX, Docetaxel] | 15 to 33 | – | – | – | – |
| free NGF: Recombinant human NGF (nerve growth factor) | – | 83 | about 5.4 min | neurite outgrowth cannot be observed clearly | neurite outgrowth was clearly observed |
